In the supplement of paper PMC4862054:

Assays:
Details in all cases: incubation time: 72 h
MDA-MB-453 [1] = assay: normalised response (% of control), CellTox Green; higher = less cell death (100 = DMSO, 0 = benzethonium chloride kill control)
Outline: (§1)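 After 72 h with compound in 384-well plates, breast cancer cell lines seeded as 20 µl suspension were read for CellTox Green fluorescence at 485/520 nm. CellTiter-Glo luminescence was then read after 10 min at room temperature. Compound was present at 5 concentrations in 10-fold steps over a 10,000-fold range set per compound, and plates were normalised to 0.1 % DMSO (100) and a positive kill control (0). Values are normalised signals, each at a single concentration.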

DU-4475 [2] = assay: as above
Outline: as §1

MCF-10A [3] = assay: as above
Outline: as §1

CAL-51 [4] = assay: as above
Outline: as §1

HCC1937 [5] = assay: as above
Outline: as §1

MFM-223 [6] = assay: as above
Outline: as §1

BT-549 [7] = assay: as above
Outline: as §1

HDQ-P1 [8] = assay: as above
Outline: as §1

CAL-148 [9] = assay: as above
Outline: as §1

MDA-MB-231 [10] = assay: as above
Outline: as §1

Hs578T [11] = assay: as above
Outline: as §1

MDA-MB-468 [12] = assay: as above
Outline: as §1

CAL-120 [13] = assay: as above
Outline: as §1

CAL-85-1 [14] = assay: as above
Outline: as §1

HCC1143 [15] = assay: as above
Outline: as §1

MDA-MB-436 [16] = assay: as above
Outline: as §1

HCC1599 [17] = assay: as above
Outline: as §1

BT-474 [18] = assay: as above
Outline: as §1

MDA-MB-453 [19] = assay: normalised response (% of control), CellTiter-Glo; higher = more viable cells (100 = DMSO, 0 = benzethonium chloride kill control)
Method: (§2)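 DSRT, 72 h incubation, CellTox Green / CellTiter-Glo readout. Signal is normalised to DMSO and benzethonium chloride controls. Value is the normalised response at the highest dose.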

DU-4475 [20] = assay: as above
Method: as §2

MCF-10A [21] = assay: as above
Method: as §2

CAL-51 [22] = assay: as above
Method: as §2

HCC1937 [23] = assay: as above
Method: as §2

MFM-223 [24] = assay: as above
Method: as §2

BT-549 [25] = assay: as above
Method: as §2

SK-BR-3 = assay: as above
Method: as §2

HDQ-P1 [26] = assay: as above
Method: as §2

CAL-148 [27] = assay: as above
Method: as §2

MDA-MB-231 [28] = assay: as above
Method: as §2

Hs578T [29] = assay: as above
Method: as §2

MDA-MB-468 [30] = assay: as above
Method: as §2

CAL-120 [31] = assay: as above
Method: as §2

CAL-85-1 [32] = assay: as above
Method: as §2

HCC1143 [33] = assay: as above
Method: as §2

MDA-MB-436 [34] = assay: as above
Method: as §2

HCC1599 [35] = assay: as above
Method: as §2

BT-474 [36] = assay: as above
Method: as §2

`Cc1ccc([N+](=O)[O-])cc1S(=O)(=O)N(C)/N=C/c1cnc2ccc(Br)cn12` [PIK-75] (10000 nM) was tested, and the normalised response (MDA-MB-453 [1]) was 51.3%, the normalised response (DU-4475 [2]) was 74.7% and the normalised response (MCF-10A [3]) was -39.7%. The normalised response (CAL-51 [4]) was -5.71%, the normalised response (HCC1937 [5]) was 24.7% and the normalised response (MFM-223 [6]) was 18.6%. The normalised response (BT-549 [7]) was -7.34%, the normalised response (HDQ-P1 [8]) was 66.3% and the normalised response (CAL-148 [9]) was 65.1%. For the same compound, the normalised response (MDA-MB-231 [10]) was -38.5%, the normalised response (Hs578T [11]) was -10.9% and the normalised response (MDA-MB-468 [12]) was 31.6%. It also gave a normalised response (CAL-120 [13]) of 81.7%, a normalised response (CAL-85-1 [14]) of 50.7% and a normalised response (HCC1143 [15]) of 54.4%. It also gave a normalised response (MDA-MB-436 [16]) of 76%, a normalised response (HCC1599 [17]) of 72.6% and a normalised response (BT-474 [18]) of 7.46%. For the same compound, the normalised response (MDA-MB-453 [19]) was 0.48%, the normalised response (DU-4475 [20]) was 1.22% and the normalised response (MCF-10A [21]) was -0.11%. It also gave a normalised response (CAL-51 [22]) of 5.22%, a normalised response (HCC1937 [23]) of 6.99% and a normalised response (MFM-223 [24]) of 3.73%. For the same compound, the normalised response (BT-549 [25]) was 1.57%, the normalised response (SK-BR-3) was 0.21% and the normalised response (HDQ-P1 [26]) was 17.4%. For the same compound, the normalised response (CAL-148 [27]) was 37.5%, the normalised response (MDA-MB-231 [28]) was 1.78% and the normalised response (Hs578T [29]) was 0.96%. For the same compound, the normalised response (MDA-MB-468 [30]) was 2.17%, the normalised response (CAL-120 [31]) was 26.6% and the normalised response (CAL-85-1 [32]) was 7.97%. The normalised response (HCC1143 [33]) was 12.6%, the normalised response (MDA-MB-436 [34]) was 15% and the normalised response (HCC1599 [35]) was 8.43%. For the same compound, the normalised response (BT-474 [36]) was 8.5%.
`CC(=O)c1c(C)c2cnc(Nc3ccc(N4CCNCC4)cn3)nc2n(C2CCCC2)c1=O` [Palbociclib] (10000 nM) gave a normalised response (MDA-MB-453 [1]) of 61.4%, a normalised response (DU-4475 [2]) of 97% and a normalised response (MCF-10A [3]) of 74.4%. It also gave a normalised response (CAL-51 [4]) of 94.1%, a normalised response (HCC1937 [5]) of 89% and a normalised response (MFM-223 [6]) of 90.1%. The normalised response (BT-549 [7]) was 106%, the normalised response (HDQ-P1 [8]) was 50.1% and the normalised response (MDA-MB-231 [10]) was 121%. The normalised response (Hs578T [11]) was 135%, the normalised response (MDA-MB-468 [12]) was 193% and the normalised response (CAL-120 [13]) was 102%. The normalised response (CAL-85-1 [14]) was 103%, the normalised response (HCC1143 [15]) was 101% and the normalised response (MDA-MB-436 [16]) was 68.1%. The normalised response (HCC1599 [17]) was 99.4%, the normalised response (BT-474 [18]) was 96% and the normalised response (MDA-MB-453 [19]) was 92.7%. For the same compound, the normalised response (DU-4475 [20]) was 86.9%, the normalised response (MCF-10A [21]) was 65.8% and the normalised response (CAL-51 [22]) was 55%. The normalised response (HCC1937 [23]) was 93.2%, the normalised response (MFM-223 [24]) was 65.9% and the normalised response (BT-549 [25]) was 79.3%. The normalised response (SK-BR-3) was 52.9%, the normalised response (HDQ-P1 [26]) was 86.3% and the normalised response (CAL-148 [27]) was 80.4%. It also gave a normalised response (MDA-MB-231 [28]) of 84.3%, a normalised response (Hs578T [29]) of 86.9% and a normalised response (MDA-MB-468 [30]) of 68.2%. For the same compound, the normalised response (CAL-120 [31]) was 77.7%, the normalised response (CAL-85-1 [32]) was 70.4% and the normalised response (HCC1143 [33]) was 76.5%. The normalised response (MDA-MB-436 [34]) was 74.4%, the normalised response (HCC1599 [35]) was 86.5% and the normalised response (BT-474 [36]) was 69.7%.
With `CC1(C)CCC(CN2CCN(c3ccc(C(=O)NS(=O)(=O)c4ccc(NCC5CCOCC5)c([N+](=O)[O-])c4)c(Oc4cnc5[nH]ccc5c4)c3)CC2)=C(c2ccc(Cl)cc2)C1` [ABT-199] (10000 nM) the normalised response (MDA-MB-453 [1]) was 97.7%, the normalised response (DU-4475 [2]) was 97.9% and the normalised response (MCF-10A [3]) was 108%. The normalised response (CAL-51 [4]) was 101%, the normalised response (HCC1937 [5]) was -11.4% and the normalised response (MFM-223 [6]) was 86.4%. The normalised response (BT-549 [7]) was 84.9%, the normalised response (HDQ-P1 [8]) was 98.2% and the normalised response (CAL-148 [9]) was 98.2%. It also gave a normalised response (MDA-MB-231 [10]) of -19%, a normalised response (Hs578T [11]) of 102% and a normalised response (MDA-MB-468 [12]) of 118%. For the same compound, the normalised response (CAL-120 [13]) was 88.4%, the normalised response (CAL-85-1 [14]) was 114% and the normalised response (HCC1143 [15]) was 103%. For the same compound, the normalised response (MDA-MB-436 [16]) was 95.9%, the normalised response (HCC1599 [17]) was 105% and the normalised response (BT-474 [18]) was 101%. For the same compound, the normalised response (MDA-MB-453 [19]) was 92.9%, the normalised response (DU-4475 [20]) was 86.2% and the normalised response (MCF-10A [21]) was 116%. For the same compound, the normalised response (CAL-51 [22]) was 119%, the normalised response (HCC1937 [23]) was 73.2% and the normalised response (MFM-223 [24]) was 91%. For the same compound, the normalised response (BT-549 [25]) was 91.4%, the normalised response (SK-BR-3) was 90% and the normalised response (HDQ-P1 [26]) was 90.8%. The normalised response (CAL-148 [27]) was 105%, the normalised response (MDA-MB-231 [28]) was 66.3% and the normalised response (Hs578T [29]) was 90.5%. It also gave a normalised response (MDA-MB-468 [30]) of 85.9%, a normalised response (CAL-120 [31]) of 98.5% and a normalised response (CAL-85-1 [32]) of 97.8%. For the same compound, the normalised response (HCC1143 [33]) was 93.7%, the normalised response (MDA-MB-436 [34]) was 102% and the normalised response (HCC1599 [35]) was 66.4%. For the same compound, the normalised response (BT-474 [36]) was 70.2%.
